Test results from PubChem BioAssay (NCI).
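Cultured in 96-well plates, cells were exposed to test compound for 48 hours across five concentrations. TGI is the concentration that stops growth completely.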

Legend:
Assay in all cases: NCI anticancer screen, dose series, 48 h
IGROV1 ovarian = tested on: IGROV1 ovarian
HT29 colon = tested on: HT29 colon
SW-620 colon = tested on: SW-620 colon
T-47D breast = tested on: T-47D breast
PC-3 prostate = tested on: PC-3 prostate
HOP-92 NSCLC = tested on: HOP-92 NSCLC
MDA-N = tested on: MDA-N
BT-549 breast = tested on: BT-549 breast
HCT-116 colon = tested on: HCT-116 colon
MDA-MB-435 = tested on: MDA-MB-435
MCF7 breast = tested on: MCF7 breast
HS 578T breast = tested on: HS 578T breast
SNB-75 CNS = tested on: SNB-75 CNS
MDA-MB-231 breast = tested on: MDA-MB-231 breast
SR leukemia = tested on: SR leukemia
MALME-3M melanoma = tested on: MALME-3M melanoma
OVCAR-3 ovarian = tested on: OVCAR-3 ovarian
UACC-62 melanoma = tested on: UACC-62 melanoma
SF-268 CNS = tested on: SF-268 CNS
DU-145 prostate = tested on: DU-145 prostate
TK-10 renal = tested on: TK-10 renal
K-562 leukemia = tested on: K-562 leukemia
A549 NSCLC = tested on: A549 NSCLC
OVCAR-4 ovarian = tested on: OVCAR-4 ovarian
SF-539 CNS = tested on: SF-539 CNS
NCI-H460 lung = tested on: NCI-H460 lung
OVCAR-8 ovarian = tested on: OVCAR-8 ovarian
M14 melanoma = tested on: M14 melanoma
SF-295 CNS = tested on: SF-295 CNS
786-0 renal = tested on: 786-0 renal
MOLT-4 leukemia = tested on: MOLT-4 leukemia
OVCAR-5 ovarian = tested on: OVCAR-5 ovarian
ACHN renal = tested on: ACHN renal
HCT-15 colon = tested on: HCT-15 colon
EKVX NSCLC = tested on: EKVX NSCLC
NCI-H522 lung = tested on: NCI-H522 lung
UO-31 renal = tested on: UO-31 renal
UACC-257 melanoma = tested on: UACC-257 melanoma
SK-MEL-28 melanoma = tested on: SK-MEL-28 melanoma
HCC-2998 colon = tested on: HCC-2998 colon
CCRF-CEM leukemia = tested on: CCRF-CEM leukemia
SK-OV-3 ovarian = tested on: SK-OV-3 ovarian
HOP-62 NSCLC = tested on: HOP-62 NSCLC
A498 renal = tested on: A498 renal
SK-MEL-5 melanoma = tested on: SK-MEL-5 melanoma
NCI-H23 lung = tested on: NCI-H23 lung
U251 CNS = tested on: U251 CNS
NCI-H226 lung = tested on: NCI-H226 lung
LOX IMVI melanoma = tested on: LOX IMVI melanoma
SNB-19 CNS = tested on: SNB-19 CNS
KM12 colon = tested on: KM12 colon
NCI/ADR-RES ovarian = tested on: NCI/ADR-RES ovarian
COLO 205 colon = tested on: COLO 205 colon
RPMI-8226 leukemia = tested on: RPMI-8226 leukemia
RXF 393 renal = tested on: RXF 393 renal
SN12C renal = tested on: SN12C renal
CAKI-1 renal = tested on: CAKI-1 renal
SK-MEL-2 melanoma = tested on: SK-MEL-2 melanoma
HL-60(TB) leukemia = tested on: HL-60(TB) leukemia

SMILES: CC(C)c1nc(Cl)nc(Cl)c1Cl
- TGI (IGROV1 ovarian): 0.423 µM
- TGI (HT29 colon): 2.52 µM
- TGI (SW-620 colon): 0.858 µM
- TGI (T-47D breast): 13.6 µM
- TGI (PC-3 prostate): 4.19 µM
- TGI (HOP-92 NSCLC): 0.381 µM
- TGI (MDA-N): 4.9 µM
- TGI (BT-549 breast): 0.0335 µM
- TGI (HCT-116 colon): 1.41 µM
- TGI (MDA-MB-435): 2.69 µM
- TGI (MCF7 breast): 6.11 µM
- TGI (HS 578T breast): 2.91 µM
- TGI (SNB-75 CNS): 22.7 µM
- TGI (MDA-MB-231 breast): 5.64 µM
- TGI (SR leukemia): 0.0209 µM
- TGI (MALME-3M melanoma): 12.9 µM
- TGI (OVCAR-3 ovarian): 1.74 µM
- TGI (UACC-62 melanoma): 2.25 µM
- TGI (SF-268 CNS): 9.12 µM
- TGI (DU-145 prostate): 10.5 µM
- TGI (TK-10 renal): 4.28 µM
- TGI (K-562 leukemia): 0.0708 µM
- TGI (A549 NSCLC): 18.6 µM
- TGI (OVCAR-4 ovarian): 0.751 µM
- TGI (SF-539 CNS): 1.82 µM
- TGI (NCI-H460 lung): 16.6 µM
- TGI (OVCAR-8 ovarian): 2.45 µM
- TGI (M14 melanoma): 1.83 µM
- TGI (SF-295 CNS): 8.91 µM
- TGI (786-0 renal): 2.26 µM
- TGI (MOLT-4 leukemia): 0.176 µM
- TGI (OVCAR-5 ovarian): 3.93 µM
- TGI (ACHN renal): 1.85 µM
- TGI (HCT-15 colon): 15.7 µM
- TGI (EKVX NSCLC): 6.62 µM
- TGI (NCI-H522 lung): 1.54 µM
- TGI (UO-31 renal): 0.166 µM
- TGI (UACC-257 melanoma): 1.91 µM
- TGI (SK-MEL-28 melanoma): 2.72 µM
- TGI (HCC-2998 colon): 13.1 µM
- TGI (CCRF-CEM leukemia): 0.0358 µM
- TGI (SK-OV-3 ovarian): 17.6 µM
- TGI (HOP-62 NSCLC): 4.04 µM
- TGI (A498 renal): 9.37 µM
- TGI (SK-MEL-5 melanoma): 6.7 µM
- TGI (NCI-H23 lung): 3.05 µM
- TGI (U251 CNS): 2.43 µM
- TGI (NCI-H226 lung): 5.58 µM
- TGI (LOX IMVI melanoma): 0.198 µM
- TGI (SNB-19 CNS): 3.06 µM
- TGI (KM12 colon): 3.9 µM
- TGI (NCI/ADR-RES ovarian): > 56.4 µM
- TGI (COLO 205 colon): 13.9 µM
- TGI (RPMI-8226 leukemia): > 100 µM
- TGI (RXF 393 renal): 1.47 µM
- TGI (SN12C renal): 2.83 µM

SMILES: CC1(C)C2CCC(=O)C1C(OCc1ccccc1)C2 (stereo not drawn)
- TGI (CAKI-1 renal): > 100 µM
- TGI (IGROV1 ovarian): > 100 µM
- TGI (HT29 colon): > 100 µM
- TGI (SW-620 colon): > 100 µM
- TGI (T-47D breast): > 100 µM
- TGI (PC-3 prostate): > 100 µM
- TGI (MDA-N): > 100 µM
- TGI (BT-549 breast): > 100 µM
- TGI (HCT-116 colon): > 100 µM
- TGI (MDA-MB-435): > 100 µM
- TGI (MCF7 breast): > 100 µM
- TGI (HS 578T breast): > 100 µM
- TGI (SNB-75 CNS): > 100 µM
- TGI (MDA-MB-231 breast): > 100 µM
- TGI (SR leukemia): > 100 µM
- TGI (MALME-3M melanoma): > 100 µM
- TGI (OVCAR-3 ovarian): > 100 µM
- TGI (UACC-62 melanoma): > 100 µM
- TGI (SF-268 CNS): > 100 µM
- TGI (DU-145 prostate): > 100 µM
- TGI (TK-10 renal): > 100 µM
- TGI (K-562 leukemia): > 100 µM
- TGI (SK-MEL-2 melanoma): > 100 µM
- TGI (A549 NSCLC): > 100 µM
- TGI (OVCAR-4 ovarian): > 100 µM
- TGI (SF-539 CNS): > 100 µM
- TGI (NCI-H460 lung): > 100 µM
- TGI (OVCAR-8 ovarian): > 100 µM
- TGI (M14 melanoma): > 100 µM
- TGI (SF-295 CNS): > 100 µM
- TGI (786-0 renal): > 100 µM
- TGI (MOLT-4 leukemia): > 100 µM
- TGI (OVCAR-5 ovarian): > 100 µM
- TGI (ACHN renal): > 100 µM
- TGI (HCT-15 colon): > 100 µM
- TGI (NCI-H522 lung): > 100 µM
- TGI (UO-31 renal): > 100 µM
- TGI (UACC-257 melanoma): > 100 µM
- TGI (SK-MEL-28 melanoma): > 100 µM
- TGI (HCC-2998 colon): > 100 µM
- TGI (CCRF-CEM leukemia): > 100 µM
- TGI (SK-OV-3 ovarian): > 100 µM
- TGI (HOP-62 NSCLC): > 100 µM
- TGI (A498 renal): > 100 µM
- TGI (SK-MEL-5 melanoma): 50.6 µM
- TGI (NCI-H23 lung): > 100 µM
- TGI (U251 CNS): > 100 µM
- TGI (NCI-H226 lung): > 100 µM
- TGI (LOX IMVI melanoma): > 100 µM
- TGI (SNB-19 CNS): > 100 µM
- TGI (KM12 colon): > 100 µM
- TGI (NCI/ADR-RES ovarian): > 100 µM
- TGI (COLO 205 colon): > 100 µM
- TGI (RPMI-8226 leukemia): > 100 µM
- TGI (RXF 393 renal): > 100 µM
- TGI (SN12C renal): > 100 µM
- TGI (HL-60(TB) leukemia): > 100 µM
